Measured values from PubChem BioAssay AID2305 (GlaxoSmithKline (GSK), 2010).

Tested on: P. falciparum 3D7 growth, pLDH absorbance
Test: blood-stage malaria parasite growth potency – strain 3D7, dose response (AID 2305)

Cn1nc(C(F)(F)F)c(-c2ccc(F)cc2)c1NC(=O)Nc1ccc(F)cc1F
IC50: 760 nM

COc1cccc(NC(=O)c2ccc(NCCCN3CC(C)CC(C)C3)c([N+](=O)[O-])c2)c1 (centres undefined)
IC50: 720 nM

N/C(=N/C(=NCCCCCCN=C(/N=C(/N)Nc1ccc(Cl)cc1)N1CCOCC1)N1CCOCC1)Nc1ccc(Cl)cc1
IC50: 710 nM

CC(C)C(=O)Nc1c(F)cc(F)cc1CCc1ccc(O)cc1
IC50: 500 nM

NCCCNc1ccnc2cc(Cl)ccc12
IC50: 300 nM

COc1ccc(-c2nc3c(N)nc(N)nc3nc2-c2ccccc2Cl)cc1 (tested in a mixture with another compound)
IC50: 550 nM

COc1ccc2nccc([C@@H](O)CN3[C@@H]4CC[C@H]3CC(NCc3ccc5c(n3)NC(=O)CS5)C4)c2n1 (some centres undefined)
IC50: 930 nM

COc1ccc2ncc(Cl)c(CCN3CCC(NCc4ccc5c(n4)NC(=O)CO5)CC3)c2c1
IC50: 470 nM

O=C(/C=C/c1ccc(Cl)c(Cl)c1)NCCCCCN1C2CCC1CC(c1c[nH]c3ccccc13)C2 (centres undefined)
IC50: 840 nM

O=C(/C=C/c1ccc(Cl)cc1)NCCCCCN1CCCC(C(=O)Nc2ccc(F)c(Cl)c2)C1 (centres undefined)
IC50: 1120 nM

CCOC(=O)NC1=NC(C)(C)N(OCc2cccc3c2ccc2ccccc23)C(NC(=O)OCC)=N1
IC50: 170 nM

COc1ccccc1CN1CCC(CNC(=O)c2cc(-c3cccc(C(F)(F)F)c3)cs2)C1 (centres undefined)
IC50: 1310 nM

Cc1ccc(NC(=O)c2ccc3ncccc3c2)cc1OC1CCN(Cc2ccsc2)C1 (centres undefined)
IC50: 800 nM

COc1ccc2nccc(NCC3(O)CCC(NCc4cc5c(cn4)OCCO5)CC3)c2n1 (centres undefined)
IC50: 660 nM

CN(Cc1cc(C(F)(F)F)cc(C(F)(F)F)c1)C(=O)C(Cc1ccc(F)cc1)C1CCCNC1 (centres undefined)
IC50: 1540 nM

Cc1cc(NN=Cc2ccc(Cl)cc2)c2ccccc2n1
IC50: 790 nM

COc1ccc2nccc([C@H](O)CN3CCC(NCc4ccc5c(c4C)OCCO5)CC3)c2n1
IC50: 890 nM

COc1ccc(C2CCN(C#N)C2)cc1OC1CCCC1 (centres undefined)
IC50: 230 nM

COc1ccc2ncc(Cl)c(CCN3CC[C@@H](CNCc4cc5c(cn4)OCS5)C3)c2n1
IC50: 810 nM

CN(CCNCc1ccc(-c2cccc(-c3nc4ccccc4[nH]3)c2)cc1)S(C)(=O)=O
IC50: 950 nM

O=S(=O)(c1ccccc1Cl)N1CCCCC(c2ccc(C(F)(F)F)cc2)=N1
IC50: 940 nM

Cc1cc2c(cc1C(F)(F)F)N(C(=O)Nc1cccc(C(=O)NC3CCN(Cc4ccccc4)CC3)c1)CC2
IC50: 910 nM

CCC[C@@H]([C@@H](CC(C)C)C(=O)N[C@H](C(=O)Nc1nccs1)C(C)(C)SCCNC(=O)OCC)N(O)C=O
IC50: 170 nM

O=C(C=Cc1ccc(Cl)c(Cl)c1)NCCCCCN1CCC(CCNC(=O)c2sc3ccccc3c2Cl)CC1
IC50: 1010 nM

CCC1(C)CC(CCNCc2ccccc2O)(c2ccc(C)cc2)CCO1 (centres undefined)
IC50: 40 nM

Cc1[nH]nc2ccc(-c3cc(OC[C@@H](N)Cc4ccccc4)cnc3-c3ccc(OCc4cccc(F)c4)cc3)cc12
IC50: 730 nM

CNC(=O)c1ccccc1Nc1nc(Nc2cccc(CS(C)(=O)=O)c2)ncc1C
IC50: 530 nM

Fc1ccc2nc(-c3cccc(-c4ccc(CNCC5CCCO5)cc4)c3)[nH]c2c1 (centres undefined)
IC50: 540 nM

CCOc1ccc(C=CC(=O)Nc2ccc3nc(N4CCOCC4)cc(C)c3c2)cc1OC
IC50: 900 nM

CS(=O)(=O)c1ccccc1CNC(=O)c1cccc(-c2ccc(-c3nc4ccc(C(F)(F)F)cc4[nH]3)cc2)c1
IC50: 810 nM

CCCCCCOc1ccc(C(=O)NCCCC2CCCN(CCCCCNC(=O)C=Cc3ccc(Cl)c(Cl)c3)C2)cc1 (centres undefined)
IC50: 700 nM

CC(C)(C)c1cc(C(=O)N2CCN(c3cnccn3)CC2)n(Cc2ccccc2)n1
IC50: 1140 nM

CCCN=CNc1cc(-c2csc(N=C(N)N)n2)cc([N+](=O)[O-])c1
IC50: 1740 nM

Cc1cc(OCCCN2CCC(NS(=O)(=O)c3cccc(Br)c3)CC2)c2ccccc2n1
IC50: 1110 nM

COc1ccc(S(=O)(=O)NC2CCN(c3ccnc4cc(Cl)ccc34)C2)cc1 (centres undefined)
IC50: 490 nM

Clc1ccc2nnc(-c3c(Cl)cccc3Cl)n2n1
IC50: 910 nM

O=C(NOCCCCOc1ccc(Cl)c(Cl)c1)c1ccccc1
IC50: 180 nM

COc1cc2nccc(Nc3ccc(NC(=O)c4ccc(C)cc4)c(O)c3)c2cc1OC
IC50: 170 nM

CC(C)Nc1cc(C(=O)N[C@@H](Cc2ccccc2)[C@H](O)CNCc2cccc(C(F)(F)F)c2)c(F)c(N2CCCCS2(=O)=O)c1
IC50: 790 nM

COc1ccc(CNC(=O)NC2CCN(c3ccnc(Nc4ccc(F)cc4)n3)CC2)cc1
IC50: 1050 nM

CCCCC1(NC(=O)[C@@H](Nc2ccc(C#N)c3ccccc23)C2CCCCC2)CCCCC1
IC50: 1120 nM

CCC(NC(=O)c1ccccc1NC(=O)c1ccc(C)cc1)C(=O)OC (centres undefined)
IC50: 760 nM

CC(=O)Nc1ccc(CN2CCC(NC(=O)c3cc(-c4ccc(N(C)C)cc4)cs3)C2)cc1 (centres undefined)
IC50: 1170 nM

COc1cc2c(c(OC)c1OC)C[C@H]1c3c(cc4c(c3-2)OCO4)CCN1C
IC50: 970 nM

CCCCOP(=O)(COc1ccc(CCN(CC(O)COc2cccc3[nH]c4ccccc4c23)CC(O)COc2cccc3[nH]c4ccccc4c23)cc1)C1CCCCC1 (centres undefined)
IC50: 940 nM

COc1ccc2c(Nc3ccc(N4CCN(C)CC4)cc3)cc(C)nc2c1
IC50: 720 nM

CCCCOc1cc2[nH]cc(C(=O)OCC)c(=O)c2cc1OCCCC
IC50: 200 nM

Cc1cc2cc(-c3ccc(CN)cc3)ccc2nc1N
IC50: 1130 nM

CSc1ccc2ccccc2c1CCNCCCCNCCc1c(SC)ccc2ccccc12
IC50: 410 nM

COc1ccccc1CCCN1C(=O)C(c2ccccc2)(c2ccccc2)N=C1N
IC50: 270 nM

Cc1cc(N2CCN(CC3CCN(C)CC3)CC2)nc(Nc2ccc(Br)cc2)n1
IC50: 440 nM

Cc1cc(C(=O)NC2CCN(Cc3ccccc3)CC2)ccc1-c1nc2cc(Cl)c(Cl)cc2[nH]1
IC50: 960 nM

Cc1ccc(N2C(N)=NC(N)=NC2c2ccccc2)cc1 (centres undefined)
IC50: 60 nM

C=CCn1c(=N)c(C(=O)NCc2ccc(F)cc2)cc2c(=O)n3cccc(C)c3nc21
IC50: 1170 nM

C[C@@H]1CN(c2cnn(Cc3cccc(NC(=O)Nc4ccc(-c5ccccc5)cc4)c3)c(=O)c2Cl)C[C@H](C)N1
IC50: 340 nM

Cc1cc(N2CCCC2)nc(/N=C(\N)Nc2cccc(C(F)(F)F)c2)n1
IC50: 320 nM

CC(C)C(=O)NC(c1ccc(Cl)cc1)c1ccc2cccnc2c1O (centres undefined)
IC50: 870 nM

O=C(Nc1ccc(Cl)cc1)c1ccc(CN2CCCN(Cc3cccc(Cl)c3)CC2)cc1
IC50: 830 nM

CO/C(=C\C=C\c1cc2cc(Cl)c(Cl)cc2[nH]1)C(=O)NCCCN1CCN(Cc2ccccc2)CC1
IC50: 910 nM

COc1cc(C(=O)NC2CC(C)(C)N(C)C(C)(C)C2)ccc1-c1nc2cc(Cl)c(Cl)cc2[nH]1
IC50: 790 nM

CN1CCC(N2CCN(Cc3cccc(-c4ccc(-c5nc6ccc(C(F)(F)F)cc6[nH]5)cc4)c3)CC2)CC1
IC50: 140 nM

Cc1ccc(CNc2ccc3ncc(-c4cccc(C(=O)NCCN(C)C)c4)n3n2)c(C)c1
IC50: 590 nM

CCNC(=O)NC1CCN(Cc2c(-c3cccs3)nc3ccccc3c2C(=O)N[C@@H](C)C2CCCCC2)CC1
IC50: 90 nM

Clc1ccccc1CCNCC1CCN(CC2CCCCC2)CC1
IC50: 690 nM

O=c1cc(NCCC(CNCCc2ccccc2)NCc2cc(Br)cc(Br)c2)[nH]c2ccccc12 (centres undefined)
IC50: 510 nM

CC(=O)OC[C@H]1O[C@@H](C#Cc2ccccc2)[C@H](OC(C)=O)[C@@H](OC(C)=O)[C@@H]1OC(C)=O
IC50: 280 nM

Cc1cc(NCC2CCN(CC3CCCCC3)C2)nc(Nc2ccc(Br)cc2)n1 (centres undefined)
IC50: 880 nM

N#Cc1ccc2c(c1)CCN(CCC1CCC(NC(=O)c3cc4ccc(Cl)cc4[nH]3)CC1)C2 (centres undefined)
IC50: 700 nM

CCn1cc(C(=O)O)c(=O)c2cc(F)c(N3CCN(S(=O)(=O)c4ccc(N)cc4)CC3)cc21
IC50: 920 nM
